Where only a bound is given, the exact number is not on record here.

In this assay the test system is Tetranychus cinnabarinus eggs. Kind of assay: Determination of activity of Tetranychus cinnabarinus eggs (greenhouse spray test). The class given is in vivo. To be noted: 120 h, concentration of the chemical solution 5 mg/L, spray treatment of eggs on marrow bean leaf, examined after 5 days, read-out: hatching inhibition rate for Tetranychus cinnabarinus eggs. The procedure: The acaricidal activity in a greenhouse was determined by using the compound of the present invention. The determination method is as follows: According to the solubility of the compound to be tested, the compound was dissolved with acetone or dimethyl sulfoxide, and prepared into 50 ml of solution to be tested in a concentration needed with 0.1% Tween 80 solution, in which the content of acetone or dimethyl sulfoxide comprises not more than […]. A potted marrow bean seedling with two true leaves was taken, one true leaf was removed, then 10 female adult mites of healthy Tetranychus cinnabarinus were inoculated to the leaf, the adult mites were removed after 24 hours, spray treatment was performed after examination of the number of eggs. Every treatment was performed for 3 times. After 5 days, when all the blank control eggs were incubated, the number of the eggs which were not incubated in each treatment was examined to calculate the incubation inhibition rate.

Consider `Cc1cc(F)c(N2Cc3ccccc3C2=O)cc1SCC(F)(F)F` [compound 1], for which the inhibition at 5 µg/mL is no less than 90%.
`Cc1cc(F)c(N2Cc3ccccc3C2=O)cc1[S+]([O-])CC(F)(F)F` (centres unmarked) [compound 2]: the inhibition at 5 µg/mL is no less than 90%.

The record behind these values is patent US11363815B2, “Trifluoroethyl thioether (sulfoxide) substituted benzene compound and use thereof” (SHENYANG UNIVERSITY OF CHEMICAL TECHNOLOGY, priority 2018, dated 2022).
